Entries after “also recorded” stand apart in the source; their conditions may differ.
How the values were obtained:
[1] = Effect of acid reducing agent omeprazole on voxelotor; conditions: in vivo
pregnant rabbits = assay: Embryo-fetal development study in pregnant rabbits; format: in vivo, rabbit
Protocol: (§1) In embryo-fetal development studies, voxelotor was administered orally to pregnant rats at 15, 50, and 250 mg/kg/day (gestation days 7 through 17) and rabbits at 25, 75, and 150 mg/kg/day (gestation days 7 through 19) through organogenesis.

rats = assay: Fertility and early embryonic development study; format: in vivo, rat
Protocol: In a fertility and early embryonic development study, voxelotor was administered orally to rats at 15, 50, and 250 mg/kg/day. Males were dosed 28 days prior to mating through cohabitation and females were dosed 14 days prior to mating through gestation Day 7.

rat = assay: Rat Comet assay; format: in vivo
From the text: Voxelotor was not genotoxic in the reverse mutation bacterial (Ames) test, rat Comet assay, or rat micronucleus assay.

[2] = Probe substrate study in healthy subjects: voxelotor exposure and safety; format: in vivo, human; conditions: alone and in combination with caffeine, warfarin sodium, omeprazole and midazolam hydrochloride
Protocol: (§2) During Period 1, subjects received a single dose of caffeine 100 mg, warfarin sodium 10 mg+vitamin K 10 mg, omeprazole 20 mg, and midazolam hydrochloride 2 mg on Day 1. During Period 2, subjects received voxelotor 900 mg QD on Days 1 and 2 followed by 600 mg QD on Day 3, a single dose of caffeine 100 mg, warfarin sodium 10 mg+vitamin K 10 mg, omeprazole 20 mg, and midazolam hydrochloride 2 mg on Day 4, and voxelotor 600 mg QD on Days 4 through 7.
(§3) Whole blood and plasma concentrations of voxelotor and plasma concentrations of caffeine, paraxanthine, S-warfarin, omeprazole, 5-hydroxyomeprazole, midazolam, and 1-hydroxymidazolam were determined using validated assays.

MATE1 = MATE1 (Homo sapiens, UniProt Q96FL8); assay: In vitro transporter studies: MATE1; format: in vitro ADME
Sequence of MATE1 (Q96FL8 whole entry): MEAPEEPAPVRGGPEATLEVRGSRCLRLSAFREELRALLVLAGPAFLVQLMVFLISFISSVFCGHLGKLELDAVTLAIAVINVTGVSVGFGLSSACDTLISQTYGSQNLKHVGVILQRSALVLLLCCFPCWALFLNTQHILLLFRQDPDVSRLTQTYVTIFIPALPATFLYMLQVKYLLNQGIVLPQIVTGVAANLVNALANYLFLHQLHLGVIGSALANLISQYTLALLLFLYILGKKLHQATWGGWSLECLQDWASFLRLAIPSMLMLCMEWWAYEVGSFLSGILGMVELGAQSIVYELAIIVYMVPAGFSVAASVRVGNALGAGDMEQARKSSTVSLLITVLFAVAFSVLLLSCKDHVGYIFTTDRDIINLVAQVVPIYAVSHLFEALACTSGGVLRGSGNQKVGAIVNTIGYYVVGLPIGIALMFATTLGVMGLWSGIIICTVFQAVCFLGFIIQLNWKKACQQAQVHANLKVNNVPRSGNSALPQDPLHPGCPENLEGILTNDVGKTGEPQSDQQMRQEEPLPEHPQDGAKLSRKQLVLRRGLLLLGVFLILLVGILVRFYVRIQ

CYP1A2 = CYP1A2 (Homo sapiens, UniProt P05177); assay: Effect of voxelotor on PK of CYP1A2 probe substrate caffeine in healthy subjects; format: in vivo
Sequence of CYP1A2 (P05177 whole entry): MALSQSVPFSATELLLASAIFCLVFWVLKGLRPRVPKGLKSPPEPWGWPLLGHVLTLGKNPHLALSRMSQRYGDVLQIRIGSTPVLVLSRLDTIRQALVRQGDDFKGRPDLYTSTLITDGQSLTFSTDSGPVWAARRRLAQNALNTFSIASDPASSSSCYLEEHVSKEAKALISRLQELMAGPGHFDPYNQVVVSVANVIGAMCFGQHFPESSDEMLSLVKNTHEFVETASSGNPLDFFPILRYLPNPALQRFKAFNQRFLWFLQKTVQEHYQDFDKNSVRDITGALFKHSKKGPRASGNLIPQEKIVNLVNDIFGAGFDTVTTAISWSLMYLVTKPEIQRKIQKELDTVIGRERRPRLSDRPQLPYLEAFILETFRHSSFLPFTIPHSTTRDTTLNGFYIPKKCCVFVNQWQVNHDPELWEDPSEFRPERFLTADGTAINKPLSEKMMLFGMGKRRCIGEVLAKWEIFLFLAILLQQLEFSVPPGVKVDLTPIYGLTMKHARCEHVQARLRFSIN
Protocol: as §2, §3

BSEP = BSEP (Homo sapiens, UniProt O95342); assay: In vitro transporter studies: BSEP; format: in vitro ADME
Sequence of BSEP (O95342 whole entry): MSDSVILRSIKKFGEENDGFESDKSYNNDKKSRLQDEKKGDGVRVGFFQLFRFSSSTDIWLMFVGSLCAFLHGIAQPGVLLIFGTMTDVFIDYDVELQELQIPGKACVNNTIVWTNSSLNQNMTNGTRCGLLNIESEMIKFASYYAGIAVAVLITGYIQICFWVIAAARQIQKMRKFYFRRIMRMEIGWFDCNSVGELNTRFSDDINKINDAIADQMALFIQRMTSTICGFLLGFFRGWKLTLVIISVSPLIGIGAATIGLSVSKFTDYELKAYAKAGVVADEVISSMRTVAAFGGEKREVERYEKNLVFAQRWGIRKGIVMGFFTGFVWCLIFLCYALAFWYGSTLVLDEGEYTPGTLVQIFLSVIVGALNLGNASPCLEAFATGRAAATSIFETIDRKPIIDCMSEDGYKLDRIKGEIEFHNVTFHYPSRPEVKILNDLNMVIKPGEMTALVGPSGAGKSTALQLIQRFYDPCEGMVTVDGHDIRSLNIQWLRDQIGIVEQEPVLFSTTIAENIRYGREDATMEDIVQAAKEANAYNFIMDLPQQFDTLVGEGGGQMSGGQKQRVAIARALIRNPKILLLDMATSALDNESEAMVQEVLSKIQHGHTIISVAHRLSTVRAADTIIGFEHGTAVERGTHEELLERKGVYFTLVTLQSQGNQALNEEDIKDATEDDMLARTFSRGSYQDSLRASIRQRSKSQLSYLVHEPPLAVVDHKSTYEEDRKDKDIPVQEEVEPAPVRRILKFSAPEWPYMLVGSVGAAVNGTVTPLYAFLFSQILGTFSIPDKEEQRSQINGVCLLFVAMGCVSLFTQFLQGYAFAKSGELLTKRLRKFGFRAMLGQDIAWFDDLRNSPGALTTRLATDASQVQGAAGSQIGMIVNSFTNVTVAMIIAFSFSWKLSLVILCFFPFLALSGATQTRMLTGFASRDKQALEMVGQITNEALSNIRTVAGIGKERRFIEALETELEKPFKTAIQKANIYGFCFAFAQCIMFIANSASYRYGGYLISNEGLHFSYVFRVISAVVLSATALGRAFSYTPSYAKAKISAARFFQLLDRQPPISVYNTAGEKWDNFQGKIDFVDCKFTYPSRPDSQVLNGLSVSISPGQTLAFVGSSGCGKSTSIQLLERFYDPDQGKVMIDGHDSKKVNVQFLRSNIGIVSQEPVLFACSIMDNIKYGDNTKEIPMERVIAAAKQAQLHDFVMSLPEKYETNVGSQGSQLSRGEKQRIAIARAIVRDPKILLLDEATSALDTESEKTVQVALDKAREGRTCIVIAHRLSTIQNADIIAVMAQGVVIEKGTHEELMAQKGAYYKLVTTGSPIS

QT interval = assay: Cardiac electrophysiology; format: in vivo; conditions: plasma concentrations approximately 2-fold above therapeutic concentrations
CYP3A4 = CYP3A4 (Homo sapiens, UniProt P08684); assay: Metabolism (in vitro and in vivo studies); format: in vitro ADME; conditions: minor contribution from CYP2C19, CYP2B6 and CYP2C9
Sequence of CYP3A4 (P08684 whole entry): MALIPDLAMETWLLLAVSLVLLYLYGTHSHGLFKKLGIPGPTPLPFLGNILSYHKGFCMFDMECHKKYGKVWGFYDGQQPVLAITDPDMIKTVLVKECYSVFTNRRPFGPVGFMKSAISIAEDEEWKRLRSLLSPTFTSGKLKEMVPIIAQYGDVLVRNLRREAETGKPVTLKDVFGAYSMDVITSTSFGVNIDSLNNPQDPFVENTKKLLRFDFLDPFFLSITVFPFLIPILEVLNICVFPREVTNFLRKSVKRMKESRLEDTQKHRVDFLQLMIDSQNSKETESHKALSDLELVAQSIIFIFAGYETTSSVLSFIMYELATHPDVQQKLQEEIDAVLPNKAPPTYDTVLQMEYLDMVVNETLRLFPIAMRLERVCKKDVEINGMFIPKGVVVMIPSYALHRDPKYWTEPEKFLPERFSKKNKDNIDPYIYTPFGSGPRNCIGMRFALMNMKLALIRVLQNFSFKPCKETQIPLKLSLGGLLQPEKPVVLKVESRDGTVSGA
From the text: In vitro and in vivo studies indicate that voxelotor is extensively metabolized through Phase I (oxidation and reduction), Phase II (glucuronidation) and combinations of Phase I and II metabolism.

pregnant rats = assay: Embryo-fetal development study in pregnant rats; format: in vivo, rat
Protocol: as §1

P-gp = P-gp (Homo sapiens, UniProt P08183); assay: In vitro transporter studies: P-gp; format: in vitro ADME
Sequence of P-gp (P08183 whole entry): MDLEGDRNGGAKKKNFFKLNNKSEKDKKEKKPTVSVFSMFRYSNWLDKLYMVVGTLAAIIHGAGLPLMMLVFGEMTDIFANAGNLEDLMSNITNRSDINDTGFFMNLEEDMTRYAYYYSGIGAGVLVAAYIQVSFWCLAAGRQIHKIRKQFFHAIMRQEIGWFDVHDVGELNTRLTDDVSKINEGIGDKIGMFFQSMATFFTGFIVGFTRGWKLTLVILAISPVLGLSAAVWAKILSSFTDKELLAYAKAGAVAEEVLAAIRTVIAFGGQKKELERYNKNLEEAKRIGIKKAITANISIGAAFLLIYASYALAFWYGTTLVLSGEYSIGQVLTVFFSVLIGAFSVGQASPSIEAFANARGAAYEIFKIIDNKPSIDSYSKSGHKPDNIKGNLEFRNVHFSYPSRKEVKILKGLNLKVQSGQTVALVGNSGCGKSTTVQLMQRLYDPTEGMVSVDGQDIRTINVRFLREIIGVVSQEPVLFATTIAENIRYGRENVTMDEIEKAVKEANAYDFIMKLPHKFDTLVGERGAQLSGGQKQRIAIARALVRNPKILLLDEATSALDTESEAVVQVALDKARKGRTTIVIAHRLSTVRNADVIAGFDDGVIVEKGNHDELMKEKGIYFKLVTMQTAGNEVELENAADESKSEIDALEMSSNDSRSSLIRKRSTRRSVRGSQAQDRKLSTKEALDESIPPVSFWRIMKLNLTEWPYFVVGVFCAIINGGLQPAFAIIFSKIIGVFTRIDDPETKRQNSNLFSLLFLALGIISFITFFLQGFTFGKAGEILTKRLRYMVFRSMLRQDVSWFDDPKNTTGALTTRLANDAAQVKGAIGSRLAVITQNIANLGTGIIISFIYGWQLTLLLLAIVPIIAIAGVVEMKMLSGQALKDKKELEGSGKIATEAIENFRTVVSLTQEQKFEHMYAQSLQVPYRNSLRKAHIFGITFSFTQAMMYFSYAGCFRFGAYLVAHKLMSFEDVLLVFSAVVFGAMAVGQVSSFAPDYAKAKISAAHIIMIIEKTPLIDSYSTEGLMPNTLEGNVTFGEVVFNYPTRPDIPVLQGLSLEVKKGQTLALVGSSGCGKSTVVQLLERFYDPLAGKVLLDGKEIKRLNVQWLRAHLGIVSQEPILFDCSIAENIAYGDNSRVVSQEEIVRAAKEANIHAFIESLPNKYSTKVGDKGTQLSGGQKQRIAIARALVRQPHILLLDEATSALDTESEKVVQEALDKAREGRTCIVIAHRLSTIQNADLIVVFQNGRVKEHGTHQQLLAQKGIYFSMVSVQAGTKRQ

[3] = Clinical trials experience (HOPE trial): safety of OXBRYTA; format: in vivo, human
Protocol: The safety of OXBRYTA was evaluated in the HOPE trial based upon 88 patients who received OXBRYTA 1,500 mg and 91 patients who received placebo orally once daily [see Clinical Studies (14)]. Seventy-four patients received OXBRYTA 1,500 mg once daily for ≥24 weeks and 65 patients for ≥48 weeks.
In patients who received OXBRYTA 1,500 mg once daily the median age was 24 years (range: 12-59); 65% female; 66% Black or African American and 23% Arab/Middle Eastern; and 65% receiving hydroxyurea at baseline.

## CC(C)n1nccc1-c1ncccc1COc1cccc(O)c1C=O [voxelotor, 2-hydroxy-6-((2-(1-isopropyl-1H-pyrazol-5-yl)pyridin-3-yl)methoxy)benzaldehyde]
[1]
  effect of co-administered omeprazole (proton pump inhibitor) on voxelotor exposure: did not alter voxelotor exposure
Pregnant rabbits; pregnant rabbits, oral 25, 75, 150 mg/kg/day, gestation days 7 through 19
  adverse developmental outcomes: no adverse developmental effects; also recorded: no evidence of adverse developmental outcomes
Pregnant rabbits; rabbits, 150 mg/kg/day
  exposure at highest dose level (maternal toxicity observed) relative to exposure in patients at the recommended daily dose: 0.3 times
rats
  exposure at 250 mg/kg/day relative to human exposure at 1,500 mg/day: approximately 5 times
rats; 250 mg/kg/day, changes in sperm morphology also occurred
  sperm motility: decreased
rats; oral 15, 50, 250 mg/kg/day
  effect on fertility or reproductive function: no effect on fertility or reproductive function
rat
  genotoxicity: not genotoxic
[2]
  safety and tolerability: safe and well tolerated
MATE1
  inhibition of MATE1: not an inhibitor
CYP1A2; healthy subjects, multiple doses of voxelotor 900/600 mg QD
  effect of voxelotor on PK of CYP1A2 probe substrate (caffeine): no clinically meaningful effect
CYP1A2; human, in vivo
  inhibition of CYP1A2 in vivo: not
BSEP
  inhibition of BSEP: not an inhibitor
  substrate of BSEP: not a substrate
QT interval
  QT interval prolongation: does not prolong QT interval to any clinically relevant extent
CYP3A4
  enzymes mediating oxidation of voxelotor: mediated primarily by CYP3A4
Pregnant rats; pregnant rats, oral 15, 50, 250 mg/kg/day, gestation days 7 through 17
  adverse developmental outcomes: no adverse developmental effects; also recorded: no evidence of adverse developmental outcomes
Pregnant rats; rats, 250 mg/kg/day
  exposure at highest dose level (maternal toxicity observed) relative to exposure in patients at the recommended daily dose: 2.8 times
P-gp
  inhibition of P-gp: not an inhibitor
  substrate of P-gp: not a substrate
[3]; HOPE, 1,500 mg (N = 88)
  Adverse reaction: Abdominal Pain (grouped PTs): 17 (19%) n (%)
  Adverse reaction: Diarrhea: 18 (20%) n (%)
  Adverse reaction: Fatigue: 12 (14%) n (%)
  Adverse reaction: Headache: 23 (26%) n (%)
  Adverse reaction: Nausea: 15 (17%) n (%)
  Adverse reaction: Pyrexia: 11 (12%) n (%)
  Adverse reaction: Rash (grouped PTs): 12 (14%) n (%)
[3]; HOPE, 1,500 mg once daily, 3/88
  patients with serious adverse reactions: 3%
[3]; HOPE, 1,500 mg once daily, 4/88
  permanent discontinuation due to an adverse reaction (Grades 1-4): 5%
[3]; HOPE, 36/88
  dosage modifications (dose reduction or dosing interruption) due to an adverse reaction: 41%
[3]; patients treated
  patients with serious hypersensitivity reactions: < 1%

— patent US20230015823A1, “METHODS OF ADMINISTERING VOXELOTOR” (Global Blood Therapeutics, Inc., priority 2019, published 2023)
